In brackets after ≈: the same amount, converted by molar mass. Peptide text beside a SMILES is read from it.
How the values were obtained:
[1] = cited from earlier work
male Wistar rats = assay: modified cecal puncture with pulstring, post-operative adhesion formation (Example 1); type: in vivo, rat; conditions: for complications due to intraperitoneal use: 0.3-1.5 g/kg intra-peritoneally; for acute inflammatory response (macrophages and macrophage chemotactic proteins): days 3-7
Method: 70 plus male Wistar rats (over 350 g each) were assessed histologically on post-operative days 1, 3, 5, 7, 10, 30, and at about 6 weeks. The rats were randomly distributed based on the mode of treatment, type of sutures and presence or absence of hemorrhage during surgery. Initially, there were three surgery groups (alanyl-glutamine treatment, saline, no treatment) plus a control (no surgery). A fifth group using L-glutamine instead of alanyl-glutamine was included after preliminary results were obtained.
The rats were anaesthetized with halothane/Ketamine. Open surgery involving a midline sub-umbilical incision and a modified cecal puncture with pulstring to prevent soilage after abdominal closure was done. The procedure involved some fecal extrusion, mimicking clinical scenarios of iatrogenic/traumatic perforations of the bowel. Alanyl-glutamine [Degussa; Coubevoie, France] (0.3 g/kg-1.5 g/kg); saline (5 ml); or L-glutamine [Wiler; PCCA] (1.5 g/kg) was instilled into the peritoneal cavity from a syringe. The cecum, abdomen, and the skin were closed in layers using the same suture. Various absorbable (3/0 Vicryl™, 3/0 Monocryl™, 3/0 PDS™, 2/0 Maxon™) and non-absorbable sutures (3/0 Prolene™, 3/0 Ethibond™, 4/0 & 5/0 Surgilene™, 3/0 Novafil™) were used. The wound was infiltrated with local anesthetic. The animals were given sufficient chow to eat (20 g/day≈2 mmole/kg/day). The gastrointestinal tract and omentum were harvested from the stomach to the sigmoid colon and fixed in formaldehyde solution for evaluation.
The severity of adhesions was assessed histologically using standard Haematoxylin & Eosin and Masson trichrome stained slides. The latter helped delineate the degree of fibrosis and collagen deposition.
Semi-quantitative analysis was done by scoring the average number of milky spots per high-power-field (HPF). Quantitative statistical analysis was done using the T-test between the experimental groups. Milky spots are a marker for inflammation and adhesion formation.
We evaluated macrophage activity following the abdominal surgery using a macrophage chemotactic protein (MCP1) antibody stain. MCP1 is a marker for macrophage activity. […] The fact that MCP1 was reduced by the treatment but was not completely absent is significant since complete absence is not desirable as it is associated with peritonitis and septic complications post-laparotomy.

Sprague-Dawley rats = assay: secondary adhesions after adhesiolysis, mesh implanted (Example 3); type: in vivo, rat; conditions: three weeks after adhesiolysis and alanyl-glutamine; six months after initial surgery with mesh
Method: Adhesions tend to recur once in place. We examined the effect of alanyl-glutamine treatment on such secondary adhesions. The modified cecal perforation with pulstring closure procedure described in Example 1 was performed on 9 Sprague-Dawley rats. These were divided into 5 groups, each group receiving a different form of mesh (INTERCEED™; PROCEED™; BARD™ composite; prolene; and a mesh which was allowed to be “infected” by repeated re-opening of the wound). The surgical procedure with mesh implacement was performed without application of a glutamine source. Six months after initial surgery, a laparotomy was performed on each rat then adhesiolysis followed by installation of alanyl-glutamine.

rats = assay: cecal puncture with Marlex mesh inserted, adhesion score of Zuhlke (Example 2); type: in vivo, rat; conditions: day 90
Method: Previous studies show a high incidence of adhesion formation when surgical mesh is employed as a reinforcing material [6a, 6b]. We repeated trials as described in Example 1, inserting Marlex™ mesh during the procedure on the surgical groups.
Severity of adhesions was assessed at day 90 using the adhesion score of Zuhlke, et al.. This scoring procedure has been described in the literature for assessment of other potential treatments for adhesions. […] This differs from previous measurements of adhesions using polypropylene mesh which reported up to about 90% adhesion formation [6a].

[2] = versus saline and non-treatment surgical groups

NCC(=O)N[C@@H](CCC(N)=O)C(=O)O [Glycyl-glutamine] (H-Gly-Gln-OH)
solubility in water [1]: 154 mg/mL (≈ 758 mM)

NC(=O)CC[C@H](N)C(=O)O [L-glutamine]
water solubility ([1]; at 20° C.): 36 mg/mL (≈ 246 mM) | complications due to intraperitoneal use (male Wistar rats): did not observe complications | acute inflammatory response (macrophages and macrophage chemotactic proteins) (male Wistar rats; [2]): reduction, but to a lesser extent

C[C@H](N)C(=O)N[C@@H](CCC(N)=O)C(=O)O [alanyl-glutamine] (H-Ala-Gln-OH)
recurrence of adhesions (secondary adhesions), scored according to Zuhlke (Sprague-Dawley rats): no secondary adhesions were seen | solubility in water [1]: 568 mg/mL (≈ 2610 mM) | complications due to intraperitoneal use (male Wistar rats): did not observe complications | effectiveness of dosage (male Wistar rats; 0.3 g/kg intraperitoneal): effective | effectiveness of dosage (male Wistar rats; 1.5 g/kg intraperitoneal): effective | histological appearance of the peritoneum, adhesion (male Wistar rats; 10th post-operative day, intraperitoneal, compared with untreated and saline treated surgical groups): very minimal adhesion | fibrosis and collagen deposition (male Wistar rats; day-10 animals, versus saline and non-treatment surgical groups): reduced | acute inflammatory response (macrophages and macrophage chemotactic proteins) (male Wistar rats; [2]): markedly reduced | milky spots per 5 high power field (5HPF) (male Wistar rats; peritoneum, controls 1 per 5HPF, untreated surgical group 6-7 per 5HPF): the same as the controls | adhesions in all the suture groups (braided and monofilament) (male Wistar rats; rat, in vivo): prevented adhesions | adhesion, histological, later assessment (male Wistar rats; rats assessed at 6 weeks): This result continued | adhesion score of Zuhlke (rats): 0-1

Source: patent US20100105628A1, “REDUCING POST-OPERATIVE ADHESION FORMATION WITH INTRAPERITONEAL GLUTAMINE” (UNIVERSITY OF SASKATCHEWAN, priority 2007, published 2010)
